Tests used:
[1] = test system: Medicago sativa (alfalfa) seeds; test: Alfalfa germination test
Experimental: (§1) Independent 60 seed to 800 seed germination tests were conducted following standard seed testing protocols. Briefly, the seeds were placed on filter paper wettened with the active ingredient solution or nanoparticle suspension under investigation and germinated for 5-10 days. The infection of seeds with fungi and bacteria, and the germination rates were determined by counting the infested and germinated seeds, respectively. The germination speed was assessed by counting all fully emerged cotyledons. Blanks (water only) and dissolved silicon control (orthosilicic acid solution) were run in parallel to all experiments in 3-8 replicates. As a positive control, a solution of the commercially available fungicide tebuconazole was run in parallel. The SiO2-NP exposed plants were embedded in low viscosity epoxy resin for transmission electron microscopy imaging.

fungi and bacteria = test: Alfalfa germination test: infection of seeds; assay type: in vivo, Medicago sativa; conditions: positive control
Experimental: as §1

Molecule | cotyledon emergence ([1]; 100 ppm) | germination ([1]; 100 ppm) | adverse effects on germinating seeds ([1]; 4000 ppm) | toxicity to the seed ([1]; same or comparable concentrations) | effect on fungi (fungi and bacteria) | overall effect on fungal infection, cotyledon emergence, seed vigor and biomass ([1]; germination and soil growth tests)
CC(C)(C)C(O)(CCc1ccc(Cl)cc1)Cn1cncn1 (stereo not drawn) [tebuconazole] | detrimental effects | detrimental effects | some adverse effects | exhibited toxicity to the seeds | killing all fungi | 
orthosilicic acid |  |  |  |  |  | performed equally or worse compared to the nanoparticles
